Data on 6 molecules can be found in patent publication US20110091473A1, “NOVEL ANTIBODY THERAPIES” (GENMAB A/S, priority 2007, published 2011).

Test [1] has as its system CD20 on RAJI-CD20high cells. Nature of the test: Flow cytometry binding of FITC-conjugated B9E9 to RAJI-CD20high cells. The conditions noted are these: Berberine chloride 24 hours; Fillipin III 30 minutes. The arrangement: species or system human. The protocol:
To deplete cholesterol from the cell membrane, methyl-beta-cyclodextrin (MβCD, Sigma, Zwijndrecht, The Netherlands) was added in varying concentrations to Daudi cells and RAJI-CD20high cells and incubated for 30 minutes at 37° C. under gentle shaking conditions. After incubation the cells were washed twice in PBS and resuspended in test medium to a concentration of 2×10^6 viable cells/ml. MβCD-treated Daudi cells (1×10^5) were incubated with a saturating concentration of FITC-conjugated human anti-CD20 mAb 2F2 or the anti-CD20 mAb B9E9 (Beckman Coulter Inc., Fullerton, Calif.) for 30 minutes at 4° C. After washing twice with FACS buffer (PBS, 0.1% Bovine Serum Albumine, 0.02% Sodium Azide), cells were analyzed on a FACS Calibur (Becton Dickinson, Breda, The Netherlands). […] Binding is expressed as mean fluorescence intensity. […]
To determine the effect of adding cholesterol on CD20 mAb binding, all cell lines (1×10^5) were incubated with a saturating concentration of B9E9 for 30 minutes at 4° C. After washing twice with FACS buffer (PBS, 0.1% Bovine Serum Albumine, 0.02% Sodium Azide), the cells were analyzed on a FACS Calibur (Becton Dickinson, Breda, The Netherlands).
Cholesterol was depleted from the cell membrane of various B cells using varying concentrations of lovastatin (as described in Example 3) and CD20 mAb binding was determined. […]
(In flow cytometry, cells or beads pass a laser one at a time.)

Test [2] deals with RAJI-CD20high cells. Nature of the test: Rituximab-mediated CDC of RAJI-CD20high cells, MTT assay. Particulars: Berberine chloride 24 hours or Fillipin III 30 minutes; 10 μg/ml rituximab, 10% serum. The class given is cell-based, human. An excerpt: Statins are competitive inhibitors of 3-hydroxy-3-methylglutaryl-coenzyme A reductase (HMG-CoAR). HMG-CoAR is a rate-limiting enzyme of the mevalonate pathway essential for the synthesis of isoprenoid compounds including cholesterol (McTaggart S J (2006) Isoprenylated proteins. Cell Mol Life Sci 63:255-267). By inhibiting HMG-CoAR, statins can lower the cholesterol blood level and extract cholesterol from the cell membrane. To determine the effect of statin-mediated cholesterol depletion on immunotherapy RAJI-CD20high cells were cultured with a concentration range of lovastatin or diluent for 48 hours.
Cell viability was measured in a MTT assay in which 3-(4,5-dimethylthiazol-2-yl)-2,5-diphenyltetrazolium bromide (MTT) solution (5 mg/ml, Roche, Diagnostics, Almere, The Netherlands) was added to each well (flat-bottom microtiter plates; Nunc, Rochester, N.Y.). The reaction was stopped after 4 hours of incubation at 37° C. by the addition of 100 μl of 20% SDS (Roche Diagnostics, Almere, The Netherlands). After overnight incubation at 37° C. the absorbance of the samples was measured at 550-525 nm using an Elisa reader (EL808x, Biotek instruments, Highland park, Vt., USA). Cytotoxicity was expressed as a relative viability of the rituximab-mediated CDC of lovastatin-treated cells compared to cells incubated with medium only and was calculated as follows: relative viability=[(Ae−Ab)/(Ac−Ab)]*100, where Ab is the background absorbance, Ae is experimental absorbance of the lysed cells and Ac is the absorbance of untreated cells. The viability was expressed as percentage survival in comparison to non-cholesterol depleted cells (control).
RAJI-CD20high cells were incubated with diluents (control) or a concentration range of either Fillipin III for 30 minutes or Berberine chloride for 24 hours. […] The cytotoxic effects were measured in a MTT assay. […] After overnight incubation at 37° C. the absorbance of the samples was measured at 550-525 nm using an Elisa reader (EL808x, Biotek instruments, Highland park, Vt., USA). […]
(In general: Tetrazolium dyes change colour on reduction, which living cells bring about.)

Test [3] addresses T1, human CD20 (human, UniProt P11836 1-297).
T1 sequence (looked up): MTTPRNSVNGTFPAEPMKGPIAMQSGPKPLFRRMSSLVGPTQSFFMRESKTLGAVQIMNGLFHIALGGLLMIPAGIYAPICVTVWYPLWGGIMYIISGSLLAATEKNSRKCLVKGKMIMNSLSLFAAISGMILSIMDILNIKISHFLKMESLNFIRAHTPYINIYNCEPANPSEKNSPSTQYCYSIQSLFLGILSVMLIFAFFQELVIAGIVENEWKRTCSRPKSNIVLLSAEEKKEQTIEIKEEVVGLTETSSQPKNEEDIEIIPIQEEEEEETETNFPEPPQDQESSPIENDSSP
Nature of the test: flow cytometry, FITC-conjugated antibody on freshly isolated B cells of five patients after 80 mg atorvastatin. An excerpt:
Informed consent was provided according to the Declaration of Helsinki.

Test [4] has as its system cell surface proteins on RAJI cells. Nature of the test: FACS binding of mAbs to cell surface proteins on RAJI cells. The class given is cell-based, human. The conditions noted are these: increasing concentrations of MβCD. The method, then: B cells (either non-treated cells, cholesterol-depleted cells via MβCD or lovastatin, or cholesterol-reconstituted cells) were characterized for quantitative surface expression of the B cell markers CD19, CD20, and CD21, the T-cell marker CD3, complement regulatory proteins CD55 and CD59, and HLA-DR and CD81 by direct immunofluorescence. […] After washing twice with FACS buffer (PBS, 0.1% Bovine Serum Albumine, 0.02% Sodium Azide), the cells were analyzed on a flow cytometer.

For test [5], the target named is T1, human CD20. Nature of the test: cell-based or functional assay.

`COc1ccc2cc3[n+](cc2c1OC)CCc1cc2c(cc1-3)OCO2` [Berberine chloride]: the “binding of B9E9 to cells treated with cholesterol-modulating drug” value in test [1] is “impaired binding”. For the same molecule, the “rituximab-mediated CDC after pre-incubation” value in test [2] is “significantly abrogated”.

On to “CD20 mAb B1 (GlaxoSmithKline) (antibody)”, for which, in test [3], the average decrease of the CD20/CD21 MFI ratio, day 3 against day 0 (so in the source) amounted to 96%. In the case of Fillipin III, the “binding of B9E9 to cells treated with cholesterol-modulating drug” value in test [1] is listed as “not observed”. In test [2], the “rituximab-mediated CDC after pre-incubation” value is “remained sensitive”.

For methyl-beta-cyclodextrin [MβCD], in test [4], the “binding of mAbs against CD19, CD20, CD55, CD59, HLA-DR and CD81” value is listed as “negatively correlated”; the “mAb binding to CD21” value is listed as “not affected”.

B1: rituximab (antibody, V domains shown)
VH: QVQLQQPGAELVKPGASVKMSCKASGYTFTSYNMHWVKQTPGRGLEWIGAIYPGNGDTSYNQKFKGKATLTADKSSSTAYMQLSSLTSEDSAVYYCARSTYYGGDWYFNVWGAGTTVTVSA
VL: QIVLSQSPAILSASPGEKVTMTCRASSSVSYIHWFQQKPGSSPKPWIYATSNLASGVPVRFSGSGSGTSYSLTISRVEAEDAATYYCQQWTSNPPTFGGGTKLEIK
As for B1, in test [5], the “EC50 of rituximab-mediated ADCC, 51Cr release, lovastatin-treated RAJI cells, PBMC effector cells” value turned out to be 0.082 µg/mL and the “EC50 of rituximab-mediated ADCC, 51Cr release, non-treated RAJI cells, PBMC effector cells” value came to 0.024 µg/mL.

B2: CD20 mAb 11B8 (antibody, V domains shown)
VH: EVQLVQSGGGLVHPGGSLRLSCTGSGFTFSYHAMHWVRQAPGKGLEWVSIIGTGGVTYYADSVKGRFTISRDNVKNSLYLQMNSLRAEDMAVYYCARDYYGAGSFYDGLYGMDVWGQGTTVTVSS
VL: EIVLTQSPATLSLSPGERATLSCRASQSVSSYLAWYQQKPGQAPRLLIYDASNRATGIPARFSGSGSGTDFTLTISSLEPEDFAVYYCQQRSDWPLTFGGGTKVEIK
For B2, the “average decrease of the CD20/CD21 MFI ratio, day 3 against day 0 (so in the source)” value in test [3] stood at 84%.
